Series [1] concerns normal human epidermal keratinocytes (NHEK). Briefly: Preliminary cytotoxicity assay (WST-8) in keratinocytes. It is filed as cell-based. Particulars: 24 hours treatment, WST-8, ingredient on its own. On the procedure: Normal human epidermal keratinocytes (NHEK) were seeded in 24-well plates and placed in culture medium (Keratinocyte-serum free media (SFM) supplemented with Epidermal Growth Factor at concentration 0.025 ug/ml and Pituitary extract at concentration of 0.05 mg/ml) for 24 hours. To determine suitable non-toxic ingredient concentrations, a cytotoxicity assay was first carried out where the NHEKs were treated with ingredients or ingredient blends for 24 hours before being incubated with WST-8 (highly water-soluble tetrazolium salt) which is reduced to a water-soluble orange coloured product (formazan) by viable, living cells and is quantified by optical density measurement at 450 nm using a spectrophotometer (VERSAmax, Molecular Devices). This reduction is proportional to the number of living cells and their metabolic activity

In series [2] the test system is Interleukin-8 (IL-8) mRNA. In words: IL-8 mRNA expression by RT-qPCR in NHEK. It is filed as cell-based, human. Particulars: 24 hours, used on its own, vs media only control. On the procedure: Interleukin 8 is a measurable biomarker for inflammation. The effectiveness of the presently described compositions in reducing inflammation, and promoting skin barrier repair, are assessed by measuring the reduction in the expression of Interleukin-8 (IL-8) in the skin cells tested. Over expression of IL-8 in the epidermis can lead to disruption of epidermal homeostasis i.e. disruption of the skin cell differentiation, proliferation and desquamation processes.
In the present experiment, the effects of compounds were assessed in normal human epidermal keratinocytes (NHEK). More specifically, the effects of these compounds were evaluated using real time polymerase chain reaction (RT-qPCR) technology. […]
IL-8 mRNA expression was analysed using RT-qPCR as part of this array. […] The amount and quality of mRNA was evaluated using capillary electrophoresis with a Bioanalyzer 2100 (Agilent technologies). […] The cDNA quantities were then diluted if necessary, to achieve equal amount of cDNA concentration in each test sample, before carrying out PCR (Polymerase Chain Reaction) using the LightCycler (trade name) system (commercially available from Roche Molecular System Inc.) according to the supplier's instructions. […] The more copies of DNA/cDNA that have been produced through PCR, the more SYBR Green molecules will bind the DNA/cDNA and the higher the level of fluorescence. […]
A general note: In qPCR the cycle at which signal appears reflects the starting amount.

Molecules are shown by their SMILES.

`NC(=O)c1cccnc1` [Niacinamide, niacinamide]: in series [1], the “maximum concentration usable without causing a loss in viability or death of the epidermal keratinocytes” value is 500 ppm. Besides, the “increase of IL-8 mRNA expression” value in series [2] was determined as 18%.
